Test results taken from patent publication CN116283752A (priority 2023, dated 2023).
≈ marks a conversion by molar mass, not a printed value. Where two headings read alike, the source gives them in different places.

Columns and labels:
Type in all cases: cell-based
[1] = system: autoluminescent Mycobacterium tuberculosis H37Ra [自主发光Mtb H37Ra]; assay: microbe, parasite or virus in culture
[2] = system: Mycobacterium tuberculosis H37Ra [结核分枝杆菌H37Ra]
[3] = system: wild-type Mycobacterium tuberculosis H37Rv [野生型结核分枝杆菌(H37Rv)]; assay: microbe, parasite or virus in culture; conditions: Alamar Blue, 37℃, 10 days + 1 day; for MIC: compound alone; for MIC + TB47: with TB47 0.003 μg/mL
[4] = Mycobacterium tuberculosis, H37RA, read-out: MIC
[5] = Mycobacterium tuberculosis, read-out: MIC

| SMILES | MIC [1] | MIC [1, 4] | MIC in synergy with TB47 [2] | MIC [3, 5] | MIC [3] | MIC + TB47 [3] |
| --- | --- | --- | --- | --- | --- | --- |
| O=C(Nc1nc2ccc(C(F)(F)F)cc2s1)c1cc(Cl)ccc1O [化合物18, 5-氯-2-羟基-N-(6-三氟甲基-2-苯并噻唑基)-苯甲酰胺] | 5 µg/mL (≈ 13.4 µM) | 5 µg/mL (≈ 13.4 µM) | 0.625 µg/mL | – | – | – |
| O=C(Nc1cnc(C(F)(F)F)cn1)c1cc(Cl)ccc1O [化合物11, 5-氯-2-羟基-N-(5-三氟甲基-2-吡嗪基)-苯甲酰胺] | 1.25 µg/mL (≈ 3.94 µM) | 1.25 µg/mL (≈ 3.94 µM) | 0.625 µg/mL | 2 µg/mL | 2 µg/mL | < 0.125 µg/mL |
| O=C(Nc1cnc(Cl)cn1)c1cc(Cl)ccc1O [compound 9, 5-氯-N-(5-氯-2-吡嗪基)-2-羟基苯甲酰胺] | – | 4 µg/mL (≈ 14.1 µM) | – | – | – | – |
| O=C(Nc1cc(Cl)ncn1)c1cc(Cl)ccc1O [compound 14, 5-氯-N-(6-氯-4-嘧啶基)-2-羟基苯甲酰胺] | – | 2.5 µg/mL (≈ 8.8 µM) | – | – | – | – |
| O=C(Nc1ccc(C(F)(F)F)cn1)c1cc(Cl)ccc1O [化合物2, 5-氯-2-羟基-N-(5-三氟甲基-2-吡啶基)-苯甲酰胺] | 1.25 µg/mL (≈ 3.95 µM) | 1.25 µg/mL (≈ 3.95 µM) | – | – | – | – |
| O=C(Nc1ncc(Cl)cn1)c1cc(Cl)ccc1O [compound 12, 5-氯-N-(5-氯-2-嘧啶基)-2-羟基苯甲酰胺] | – | 5 µg/mL (≈ 17.6 µM) | – | – | – | – |
| O=C(Nc1cnc(Cl)c(Cl)c1)c1cc(Cl)ccc1O [化合物7, 5-氯-N-(5,6-二氯-3-吡啶基)-2-羟基苯甲酰胺] | – | 2.5 µg/mL (≈ 7.87 µM) | – | 4 µg/mL | – | 0.25 µg/mL |
| O=C(Nc1ccc(Cl)cn1)c1cc(Cl)ccc1O [化合物1, 5-氯-N-(5-氯-2-吡啶基)-2-羟基苯甲酰胺] | – | 5 µg/mL (≈ 17.7 µM) | – | – | – | – |
| O=C(Nc1ccnc(C(F)(F)F)c1)c1cc(Cl)ccc1O [化合物4, 5-氯-2-羟基-N-(2-三氟甲基-4-吡啶基)-苯甲酰胺] | 1.25 µg/mL (≈ 3.95 µM) | 1.25 µg/mL (≈ 3.95 µM) | 0.625 µg/mL | 2 µg/mL | 2 µg/mL | < 0.125 µg/mL |
| O=C(Nc1cncc(Cl)n1)c1cc(Cl)ccc1O [化合物10, 5-氯-N-(6-氯-2-吡嗪基)-2-羟基苯甲酰胺] | – | 2.5 µg/mL (≈ 8.8 µM) | – | 4 µg/mL | – | 0.25 µg/mL |
| O=C(Nc1ccc(C(F)(F)F)nc1)c1cc(Cl)ccc1O [化合物3, 5-氯-2-羟基-N-(6-三氟甲基-3-吡啶基)-苯甲酰胺] | 4 µg/mL (≈ 12.6 µM) | 4 µg/mL (≈ 12.6 µM) | 0.25 µg/mL | 4 µg/mL | – | 0.5 µg/mL |
| O=C(Nc1ccc(Cl)nn1)c1cc(Cl)ccc1O [compound 19, 5-氯-N-(6-氯-3-哒嗪基)-2-羟基苯甲酰胺] | – | 10 µg/mL (≈ 35.2 µM) | – | – | – | – |
| O=C(Nc1cncc(C(F)(F)F)c1)c1cc(Cl)ccc1O [compound 5, 5-氯-2-羟基-N-(5-三氟甲基-3-吡啶基)-苯甲酰胺] | – | 5 µg/mL (≈ 15.8 µM) | – | – | – | – |
| O=C(Nc1cnc(Cl)nc1)c1cc(Cl)ccc1O [compound 13, 5-氯-N-(2-氯-5-嘧啶基)-2-羟基苯甲酰胺] | – | 5 µg/mL (≈ 17.6 µM) | – | – | – | – |
| O=C(Nc1nccc(C(F)(F)F)n1)c1cc(Cl)ccc1O [compound 15, 5-氯-2-羟基-N-(4-三氟甲基-2-嘧啶基)-苯甲酰胺] | – | 5 µg/mL (≈ 15.7 µM) | – | – | – | – |
| O=C(Nc1nc2ccc(OC(F)(F)F)cc2s1)c1cc(Cl)ccc1O [compound 17, 5-氯-2-羟基-N-(6-三氟甲氧基-2-苯并噻唑基)-苯甲酰胺] | – | 10 µg/mL (≈ 25.7 µM) | – | – | – | – |
| O=C(Nc1cc(Cl)nc(Cl)c1)c1cc(Cl)ccc1O [compound 6, 5-氯-N-(2,6-二氯-4-吡啶基)-2-羟基苯甲酰胺] | 1.25 µg/mL (≈ 3.94 µM) | 1.25 µg/mL (≈ 3.94 µM) | 0.625 µg/mL | – | – | – |
| O=C(Nc1cc(C(F)(F)F)ncn1)c1cc(Cl)ccc1O [compound 16, 5-氯-2-羟基-N-(6-三氟甲基-4-嘧啶基)-苯甲酰胺] | 2.5 µg/mL (≈ 7.87 µM) | 2.5 µg/mL (≈ 7.87 µM) | 0.625 µg/mL | – | – | – |
| O=C(Nc1ncc(Cl)s1)c1cc(Cl)ccc1O [compound 21, 5-氯-N-(5-氯-2-噻唑基)-2-羟基苯甲酰胺] | – | 5 µg/mL (≈ 17.3 µM) | – | – | – | – |
| O=C(Nc1ccc(Cl)nc1Cl)c1cc(Cl)ccc1O [化合物8, 5-氯-N-(2,6-二氯-3-吡啶基)-2-羟基苯甲酰胺] | 2.5 µg/mL (≈ 7.87 µM) | 2.5 µg/mL (≈ 7.87 µM) | 0.625 µg/mL | 4 µg/mL | – | 0.25 µg/mL |
| O=C(Nc1nnc(C(F)(F)F)s1)c1cc(Cl)ccc1O [compound 20, 5-氯-2-羟基-N-[5-三氟甲基-2-(1,3,4-噻二唑基)]-苯甲酰胺] | – | 10 µg/mL (≈ 30.9 µM) | – | – | – | – |
